These results are taken from patent US20150005347A1, “NITROGEN-CONTAINING HETEROCYCLIC DERIVATIVE HAVING 2-IMINO GROUP AND PEST CONTROL AGENT INCLUDING THE SAME” (MEIJI SEIKA PHARMA CO., LTD., priority 2012, published 2015).

Format in all cases: in vivo
In data set [1] the test system is Haemaphysalis longicornis. Nature of the data set: Pest control test of Haemaphysalis longicornis on the body surface of a dog. The note with it: 72 h, read-out: mortality of mites. The procedure: Test Example 25 Pest Control Test of Haemaphysalis longicornis
Three petri dishes with a diameter of 9 cm and a height of 1 cm were adhered to the back of a dog. Compound 1-20 of the present invention was dissolved in ethanol so as to be 5.35 mg/mL, and the mixture was added dropwise to the body surface of the dog in the petri dish. The petri dish was sufficiently dried, and then thirty young mites of Haemaphysalis longicornis were released thereto. Each dog was housed in a cage and reared under conditions of 10 hours of light period and 14 hours of dark period at 23° C. Three days after the release, the petri dishes were detached therefrom to measure the numbers of living and dead mites and blood-sucking individuals of young mites, and the mortality of mites was calculated according to the following equation.
Mortality of mites(%)={number of dead mites/(number of survived mites+number of dead mites)}×100

Data set [2] concerns Sogatella furcifera. Nature of the data set: Pest control test of Sogatella furcifera, soil irrigation treatment. As for the experimental part:
Test Example 11 Pest Control Test of Sogatella furcifera
A rice seedling in pot culture was subjected to soil irrigation treatment with a drug solution of the compound of the present invention at a predetermined concentration, which had been prepared so as to be a 10% acetone water. Three days after the treatment, ten second instar larvae of Sogatella furcifera were each released thereto. Thereafter, the larvae were left to stand in a thermostatic chamber (16 hours of light period-8 hours of dark period) at 25° C. […] The test was performed in duplicate.
(§1) Mortality of larvae(%)={number of dead larvae/(number of survived larvae+number of dead larvae)}×100

The subject of data set [3] is susceptible populations of Laodelphax striatella. Nature of the data set: Soil irrigation test, susceptible populations of Laodelphax striatella. Conditions: Rate 0.005 mg/pot. As for the experimental part:
A rice seedling in pot culture was subjected to soil irrigation treatment with a drug solution of the compound of the present invention at a predetermined concentration, which had been prepared so as to be a 10% acetone water. […] Thereafter, the larvae were left to stand in a thermostatic chamber (16 hours of light period-8 hours of dark period) at 25° C. […] The test was performed in duplicate.
as §1
Further, for comparison, the test against a populations of Laodelphax striatella which is highly susceptible to fipronil was performed by the same method as described above, and the results thereof are shown in Table 45.
In addition, for the origin of test pests, bugs collected within the Kumamoto prefecture in 2006 as the drug resistant Laodelphax striatella, and bugs successively reared indoors for a long time as the susceptible populations of Laodelphax striatella were used.

The subject of data set [4] is Laodelphax striatella exhibiting drug resistance to fipronil. Nature of the data set: Foliar spray test, Laodelphax striatella exhibiting drug resistance to fipronil. Conditions: Laodelphax striatellus, 144 h, read-out: mortality of larvae. The procedure: Test Example 15 Pest Control Test of Laodelphax striatella
A drug solution of the compound of the present invention at a predetermined concentration, which had been prepared so as to be a 50% acetone water (0.05% Tween20 available), was foliar sprayed to a rice seedling in pot culture. […] Thereafter, the larvae were left to stand in a thermostatic chamber (16 hours of light period-8 hours of dark period) at 25° C. […] Test in duplicate.
as §1
Further, for the origin of test pests, insects of Laodelphax striatella collected outdoors within the Kumamoto prefecture in 2006 were used.

Data set [5] deals with Sogatella furcifera exhibiting drug resistance to fipronil. Description: Foliar spray test, Sogatella furcifera exhibiting drug resistance to fipronil. Conditions: 96 h, read-out: mortality of larvae. As for the experimental part:
Test Example 17 Pest Control Test of Sogatella furcifera
A drug solution of the compound of the present invention at a predetermined concentration, which had been prepared so as to be a 10% acetone water (0.05% Tween20 available), was foliar sprayed to a rice seedling in pot culture. […] Thereafter, the larvae were left to stand in a thermostatic chamber (16 hours of light period-8 hours of dark period) at 25° C. […] Test in duplicate.
as §1
Further, for the origin of test pests, insects of Sogatella furcifera collected outdoors within the city of Odawara in 2010 were used.

Data set [6] relates to Aulacophora femoralis. Nature of the data set: Pest control test of Aulacophora femoralis, cucumber leaf disk foliar spray. The procedure:
Test Example 4 Pest Control Test of Aulacophora femoralis
A leaf disk having a diameter of 2.8 cm was cut out from a cucumber in pot culture, and a drug solution of the compound of the present invention at a predetermined concentration, which had been prepared so as to be a 50% acetone water (0.05% Tween20 available), was sprayed to the leaf disk. After an air drying process, adults were released thereto. Thereafter, the adults were left to stand in a thermostatic chamber (16 hours of light period-8 hours of dark period) at 25° C. […] Test in duplicate.
Mortality of adults(%)={number of dead adults/(number of survived adults+number of dead adults)}×100

The subject of data set [7] is Oulema oryzae. Nature of the data set: Pest control test of Oulema oryzae, soil irrigation treatment. Conditions: 0.05 mg/seedling, three days after release. The procedure: Test Example 13 Pest Control Test of Oulema oryzae
A rice seedling in pot culture was subjected to soil irrigation treatment with a drug solution of the compound of the present invention at a predetermined concentration, which had been prepared so as to be a 10% acetone water. Three days after the treatment, two second instar larvae of Oulema oryzae were each released thereto. Thereafter, the larvae were left to stand in a thermostatic chamber (16 hours of light period-8 hours of dark period) at 25° C. […] The test was performed in duplicate.
as §1

Data set [8] concerns Callosobruchus chinensis. Description: Pest control test against Callosobruchus chinensis, topical treatment of adults. As for the experimental part: Test Example 5 Pest control test against Callosobruchus chinensis
1 μL (/head) of a drug solution of the compound of the present invention prepared at a predetermined concentration with acetone was treated to the back of Callosobruchus chinensis adults. After the drug treatment, the adults were transferred to a plastic cup and left to stand in a thermostatic chamber at 25° C.
Rate of agonized adults(%)={number of dead adults/(number of survived adults+number of dead adults)}×100

The test system of data set [9] is imidacloprid susceptible populations of Nilaparvata lugens. Nature of the data set: Soil irrigation test, imidacloprid susceptible populations of Nilaparvata lugens. In outline:
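Potted rice seedlings soil-irrigated with compound in 10% acetone water at set concentrations; larvae held at 25 °C, 16 h light/8 h dark. Mortality % = dead/(dead + survivors) ×100, duplicate. Susceptible population: Kagoshima-collected, long-term lab-reared.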

[10] abbreviates: read-out: % Mortality, Test Example4 Aulacophora femoralis.

For `FC(F)(F)C(=S)/N=c1\ccccn1Cc1ccc(Cl)nc1` [Compound 1-20, N-[1-((6-chloropyridin-3-yl)methyl)pyridin-2(1H)-ylidene]-2,2,2-trifluoroethanethioamide], in data set [1], the mortality at 5350 µg/mL is 100%. The “% Mortality, Test Example 11 Sogatella furcifera” value turned out to be 53% in data set [2] (0.005 mg/pot) and 88% in data set [2] (0.01 mg/pot). Further, the “Insecticidal effects against Laodelphax striatella (mortality of larvae %), Susceptible populations six days after the treatment” value in data set [3] is 85%. The mortality at 1.25 ppm in [4] was at least 80%; in data set [6] (setting [10]), 100%. For the same molecule, the mortality at 20 ppm in data set [5] is at least 80%. Besides, in data set [6] (72 h, read-out: mortality of adults), the mortality at 10 ppm is at least 80%. Also, the mortality at 5 ppm in [6] (setting [10]) was found to be 100%. Further, the mortality of larvae in [7] is recorded as at least 80%. The molecule also came in with a mortality of adults in data set [8] (0.1 μg/head on the back of adults, twenty four hours after treatment) of at least 80%. The “% Mortality, Test Example5 Callosobruchus chinensis” value in data set [8] (Concentration 10 (ppm)) and in data set [8] (Concentration 100 (ppm)) was 100% throughout. Further, the entries for the “Insecticidal effects against Nilaparvata lugens (mortality of larvae %), Susceptible populations three days after the treatment” value in data set [9] (Rate 0.01 mg/pot) and in [9] (Rate 0.05 mg/pot) were 95% and 96%, respectively.
